Source: ChEMBL document CHEMBL1201862, “PubChem BioAssay data set” (2004)
Values joined by “and” are separate entries in the source; they are usually repeats but may differ in a detail not shown here. Equal values may be shown once. Active and inactive are the calls of the source.

Key:
[1] = test system: Vero; assay: Vero cell cytotoxicity, cytotoxicity control for flavivirus capping enzyme inhibitors (AID 588742); type: functional; conditions: Chlorocebus sabaeus
[2] = target: Genome polyprotein (dengue virus type 2, UniProt P29990); assay: Dengue-2 NS5 methyltransferase inhibitors, primary screen, biochemical, confirmation dose response (AID 588689); type: functional
[3] = test system: Streptococcus sp. 'group A'; assay: growth inhibition of control SK(-) GAS strain, dose response, counter-screen for streptokinase expression inhibitor project, luminescence, kanamycin, BacTiterGlo, confirmation (AID 1900); type: functional, organism-based
[4] = target: T1, Streptokinase A (Streptococcus pyogenes serotype M1, UniProt P10520); assay: S. pyogenes streptokinase expression inhibitors, potency, dose response, plasminogen activation absorbance, OD405 (AID 1914); type: functional, Streptococcus pyogenes M1 GAS;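 further: secreted streptokinase activity via plasminogen activation per viability signal from cell pellet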
T1 sequence (P10520 whole entry): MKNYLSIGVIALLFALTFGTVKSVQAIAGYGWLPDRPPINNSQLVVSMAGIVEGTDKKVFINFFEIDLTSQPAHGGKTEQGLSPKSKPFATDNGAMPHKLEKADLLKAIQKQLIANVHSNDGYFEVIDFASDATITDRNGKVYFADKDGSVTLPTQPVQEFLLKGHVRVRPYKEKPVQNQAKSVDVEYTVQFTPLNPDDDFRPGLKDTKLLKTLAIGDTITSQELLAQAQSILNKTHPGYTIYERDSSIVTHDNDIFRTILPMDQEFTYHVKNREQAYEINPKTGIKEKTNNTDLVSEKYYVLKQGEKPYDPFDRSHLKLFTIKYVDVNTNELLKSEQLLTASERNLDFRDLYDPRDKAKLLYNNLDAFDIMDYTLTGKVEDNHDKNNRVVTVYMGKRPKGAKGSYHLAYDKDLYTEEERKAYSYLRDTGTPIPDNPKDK

[5] = test system: Streptococcus; assay: Group A Streptococcus viability loss, dose response, counter-screen for streptokinase expression inhibitor project, luminescence, BacTiterGlo (AID 1915); type: functional, organism-based;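 further: potency for reduction of bacterial viability or growth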
[6] = target: Photoreceptor-specific nuclear receptor (Homo sapiens, UniProt Q9Y5X4); type: functional, cell-based;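 further: CHO-S cells with Gal4-NCOR and VP16-NR2E3 two-hybrid luciferase reporter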
[7] = target: T2, Long-chain-fatty-acid--AMP ligase FadD28 (Mycobacterium tuberculosis, UniProt P9WQ59); assay: Fluorescence polarization aasay to screen for inhibitors that compete for the binding of FadD28 to a bisubstrate Measured in Biochemical System Using Plate Reader - 2147-01_Inhibitor_Dose_CherryPick_Activity.; type: functional, Mycobacterium tuberculosis H37Rv
T2 sequence (P9WQ59 whole entry): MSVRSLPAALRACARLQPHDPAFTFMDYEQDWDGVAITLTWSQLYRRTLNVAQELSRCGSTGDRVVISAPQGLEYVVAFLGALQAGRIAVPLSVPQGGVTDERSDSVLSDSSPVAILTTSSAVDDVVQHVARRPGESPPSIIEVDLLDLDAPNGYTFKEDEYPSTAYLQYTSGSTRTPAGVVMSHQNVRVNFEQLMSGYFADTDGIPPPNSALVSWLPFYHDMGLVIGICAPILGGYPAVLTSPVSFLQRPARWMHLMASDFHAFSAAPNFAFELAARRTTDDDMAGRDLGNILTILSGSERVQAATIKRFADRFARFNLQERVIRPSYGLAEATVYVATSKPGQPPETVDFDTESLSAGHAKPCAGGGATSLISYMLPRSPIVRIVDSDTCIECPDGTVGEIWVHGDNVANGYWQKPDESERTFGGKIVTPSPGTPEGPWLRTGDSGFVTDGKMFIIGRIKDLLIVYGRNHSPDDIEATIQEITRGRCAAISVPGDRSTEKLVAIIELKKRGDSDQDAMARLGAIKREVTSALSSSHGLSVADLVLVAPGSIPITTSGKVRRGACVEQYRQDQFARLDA

[8] = test system: Escherichia coli; assay: microbe, parasite or virus in culture
[9] = target: CAAX prenyl protease 2 (Homo sapiens, UniProt Q9Y256); assay: human Rce1 protease inhibitors, dose response, biochemical, yeast membranes, quenched-peptide fluorescence, cherry-pick (AID 588849)
[10] = target: T3, Microphthalmia-associated transcription factor (Homo sapiens, UniProt O75030); assay: TRPM1 promoter luciferase signal decrease, dose response, MITF inhibitor project, cell-based, SK-MEL-5, cherry-picked, set 3 (AID 493073); type: functional
T3 sequence (O75030 whole entry): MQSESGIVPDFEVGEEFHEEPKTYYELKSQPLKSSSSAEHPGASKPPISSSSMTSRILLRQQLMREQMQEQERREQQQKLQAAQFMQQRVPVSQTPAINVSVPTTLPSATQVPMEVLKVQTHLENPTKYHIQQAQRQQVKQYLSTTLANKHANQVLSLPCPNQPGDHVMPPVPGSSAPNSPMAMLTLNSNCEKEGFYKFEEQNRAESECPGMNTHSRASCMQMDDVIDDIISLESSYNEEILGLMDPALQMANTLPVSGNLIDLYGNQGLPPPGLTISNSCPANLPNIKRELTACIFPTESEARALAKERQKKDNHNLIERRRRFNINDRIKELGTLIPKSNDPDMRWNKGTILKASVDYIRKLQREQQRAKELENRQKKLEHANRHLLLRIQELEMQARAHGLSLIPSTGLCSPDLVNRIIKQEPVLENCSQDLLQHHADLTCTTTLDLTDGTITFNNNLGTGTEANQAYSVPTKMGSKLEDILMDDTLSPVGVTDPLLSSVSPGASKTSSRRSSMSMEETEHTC

[11] = test system: A-375; assay: MITF: Counter assay: A375 proliferation Measured in Cell-Based System Using Plate Reader - 2084-03_Inhibitor_Dose_DryPowder_Activity. [Related pubchem assays (depositor defined):AID488944]; type: functional; conditions: Homo sapiens
[12] = test system: A-375; assay: A375 melanoma cell viability reduction, dose response, counter-screen for MITF modulator project, cherry-pick samples, set 2 (AID 540335); type: functional, cell-based; conditions: Homo sapiens
[13] = target: T4, Cytochrome P450 2C19 (Homo sapiens, UniProt P33261); assay: qHTS Assay for Inhibitors and Substrates of Cytochrome P450 2C19. [Related pubchem assays: 410 ]; type: ADME; conditions: read-out: Potency
[14] = target: T4, Cytochrome P450 2C19; assay: Cytochrome panel assay with activity outcomes. Panel member name: p450-cyp2c19 Compounds with AC50 equal or less than 10 uM are considered active; type: functional; conditions: read-out: AC50
[15] = target: Dual specificity tyrosine-phosphorylation-regulated kinase 1A (Rattus norvegicus, UniProt Q63470); type: biochemical, Homo sapiens
[16] = target: T5, Carboxy-terminal domain RNA polymerase II polypeptide A small phosphatase 1 (Homo sapiens, UniProt Q9GZU7); assay: inhibitors of CTDSP1, concentration-response testing, biochemical assay, absorbance-based, actives from ultra-high-throughput screening (AID 540297); type: functional
T5 sequence (Q9GZU7 whole entry): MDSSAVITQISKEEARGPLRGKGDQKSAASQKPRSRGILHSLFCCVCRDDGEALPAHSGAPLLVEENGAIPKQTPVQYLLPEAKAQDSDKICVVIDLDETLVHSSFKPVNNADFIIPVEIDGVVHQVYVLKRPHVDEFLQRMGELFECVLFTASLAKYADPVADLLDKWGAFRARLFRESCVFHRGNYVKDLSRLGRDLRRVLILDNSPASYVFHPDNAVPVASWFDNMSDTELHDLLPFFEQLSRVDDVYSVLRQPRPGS

[17] = target: T6, Rac GTPase-activating protein 1 (Homo sapiens, UniProt Q9H0H5); assay: MgcRacGAP GTPase-activating activity inhibitors, confirmation, biochemical, ADP Hunter fluorescence, primary and confirmatory (AID 624330); type: functional
T6 sequence (Q9H0H5 whole entry): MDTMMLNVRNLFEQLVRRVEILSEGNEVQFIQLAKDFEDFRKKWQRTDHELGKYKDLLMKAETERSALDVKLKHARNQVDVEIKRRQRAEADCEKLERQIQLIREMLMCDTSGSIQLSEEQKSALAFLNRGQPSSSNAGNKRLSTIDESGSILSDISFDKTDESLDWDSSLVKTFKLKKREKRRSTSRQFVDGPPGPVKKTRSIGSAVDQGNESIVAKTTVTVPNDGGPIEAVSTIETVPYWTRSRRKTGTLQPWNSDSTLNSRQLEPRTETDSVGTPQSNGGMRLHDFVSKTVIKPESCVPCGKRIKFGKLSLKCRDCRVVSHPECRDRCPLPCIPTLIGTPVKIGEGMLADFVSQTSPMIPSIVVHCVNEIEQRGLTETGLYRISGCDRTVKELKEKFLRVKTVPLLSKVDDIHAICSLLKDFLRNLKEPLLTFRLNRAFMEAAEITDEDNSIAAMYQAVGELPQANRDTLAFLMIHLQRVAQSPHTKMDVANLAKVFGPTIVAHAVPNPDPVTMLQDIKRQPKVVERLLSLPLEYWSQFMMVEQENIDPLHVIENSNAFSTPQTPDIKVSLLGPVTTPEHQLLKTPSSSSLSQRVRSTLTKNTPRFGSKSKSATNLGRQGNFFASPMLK

[18] = target: Cytochrome P450 2C9 (Homo sapiens, UniProt P11712)
[19] = target: Voltage-gated inwardly rectifying potassium channel KCNH2 (Homo sapiens, UniProt Q12809); conditions: Potency;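 further: confirmatory quantitative high-throughput screen measuring inhibition of hERG channel activity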
[20] = target: Aryl hydrocarbon receptor (Homo sapiens, UniProt P35869); conditions: Potency;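 further: confirmatory quantitative high-throughput screen measuring activation of the AhR signaling pathway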
[21] = test system: INS1; assay: protection from cytokine-induced mitochondrial depolarization, dose response, cell-based, INS-1E, JC-1 fluorescence ratio, dry powder (AID 488931); type: functional; conditions: Rattus norvegicus
[22] = target: Dual specificity protein kinase CLK1 (Homo sapiens, UniProt P49759); assay: CLK1 kinase inhibitors, off-target check, dose response, selectivity assay for Dyrk1A inhibitor project, biochemical, cherry-picked samples (AID 588811)
[23] = target: Glycogen synthase kinase-3 alpha (Homo sapiens, UniProt P49840); assay: Inhibition of Human GSK-3 alpha Activity Measured in Biochemical System Using Microfluidics - 2063-06_Inhibitor_Dose_DryPowder_Activity. [Related pubchem assays (depositor defined):AID2709]
[24] = target: Glycogen synthase kinase-3 beta (Homo sapiens, UniProt P49841); assay: Inhibition of Human GSK-3 beta Activity Measured in Biochemical System Using Microfluidics - 2063-05_Inhibitor_Dose_DryPowder_Activity. [Related pubchem assays (depositor defined):AID2709]
[25] = A Cell Based Secondary Assay To Explore Cytotoxicity of Compounds that Sensitize Mycobacterium Tuberculosis to Beta-Lactam Antibiotics.; type: functional
[26] = test system: CHO; assay: cytotoxicity in TLR9-MyD88 CHO cells, dose response, cytotoxicity control for TLR9-MyD88 binding inhibitor project, cell-based, luminescence (AID 588339); type: functional, hamster; conditions: Cricetulus griseus;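 further: CHO cells stably coexpressing TLR9 and MyD88 fusions from primary screen; compound exposure lasted 48 hours before viability readout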
[27] = target: T7, Endoribonuclease toxin MazF (Escherichia coli K-12, UniProt P0AE70); assay: MazF toxin RNase activators, dose response, biochemical, fluorescence, single-stranded RNA substrate, uHTS hits (AID 588481); type: functional
T7 sequence (P0AE70 whole entry): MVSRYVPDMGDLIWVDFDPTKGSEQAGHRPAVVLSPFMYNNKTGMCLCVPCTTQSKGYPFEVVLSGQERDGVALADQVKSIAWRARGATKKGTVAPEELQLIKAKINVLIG

[28] = target: Beta Lactamase (Pseudomonas aeruginosa, UniProt Q932Y6); assay: beta-lactamase reporter inhibitor potency, dose response, artefact control for TLR9-MyD88 binding inhibitor project, BLA reporter cells, FRET fluorescence (AID 588341); type: cell-based;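 further: cell based assay in CHO-K1 cells stably expressing beta-lactamase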
[29] = target: T7, Endoribonuclease toxin MazF; assay: fluorescent RNA oligo signal without MazF, dose response, counter-screen for MazEF activator project, biochemical, fluorescence, single-stranded RNase substrate (AID 588502); type: functional
[30] = target: Beta-2 adrenergic receptor (Homo sapiens, UniProt P07550); assay: beta2AR agonists driving receptor internalization, dose response, cell-based, FAP fluorogen, flow cytometry, cherry pick 1 (AID 588763); type: functional
[31] = target: DNA topoisomerase (Yersinia pestis, UniProt A0A2S9PM60); assay: Y. pestis Topo-I inhibitors, cleavage product readout, dose response, biochemical, cherry-pick (AID 588525)

Chain of Aryl hydrocarbon receptor (P35869 whole entry): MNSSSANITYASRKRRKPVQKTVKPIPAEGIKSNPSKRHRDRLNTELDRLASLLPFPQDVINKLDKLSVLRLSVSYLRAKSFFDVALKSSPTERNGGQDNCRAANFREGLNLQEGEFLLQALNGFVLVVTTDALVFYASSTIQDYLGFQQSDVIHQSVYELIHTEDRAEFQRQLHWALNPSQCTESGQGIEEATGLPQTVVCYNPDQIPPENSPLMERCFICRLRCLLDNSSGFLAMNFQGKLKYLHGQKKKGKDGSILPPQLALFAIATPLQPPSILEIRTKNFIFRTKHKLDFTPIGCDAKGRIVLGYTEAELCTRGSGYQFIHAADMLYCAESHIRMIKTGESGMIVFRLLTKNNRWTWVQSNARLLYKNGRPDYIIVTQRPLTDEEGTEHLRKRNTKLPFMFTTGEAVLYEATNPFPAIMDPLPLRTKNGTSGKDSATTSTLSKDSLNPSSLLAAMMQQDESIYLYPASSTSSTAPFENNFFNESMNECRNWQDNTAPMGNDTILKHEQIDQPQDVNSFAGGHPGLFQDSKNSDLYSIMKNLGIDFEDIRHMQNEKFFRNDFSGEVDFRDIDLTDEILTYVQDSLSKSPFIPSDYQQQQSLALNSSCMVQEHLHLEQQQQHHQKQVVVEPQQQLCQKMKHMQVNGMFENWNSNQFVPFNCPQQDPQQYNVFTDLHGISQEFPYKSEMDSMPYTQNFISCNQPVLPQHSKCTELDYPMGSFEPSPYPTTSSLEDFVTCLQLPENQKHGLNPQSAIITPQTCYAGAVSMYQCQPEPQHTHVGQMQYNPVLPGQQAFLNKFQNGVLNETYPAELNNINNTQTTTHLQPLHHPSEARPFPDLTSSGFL
T4 sequence (P33261 whole entry): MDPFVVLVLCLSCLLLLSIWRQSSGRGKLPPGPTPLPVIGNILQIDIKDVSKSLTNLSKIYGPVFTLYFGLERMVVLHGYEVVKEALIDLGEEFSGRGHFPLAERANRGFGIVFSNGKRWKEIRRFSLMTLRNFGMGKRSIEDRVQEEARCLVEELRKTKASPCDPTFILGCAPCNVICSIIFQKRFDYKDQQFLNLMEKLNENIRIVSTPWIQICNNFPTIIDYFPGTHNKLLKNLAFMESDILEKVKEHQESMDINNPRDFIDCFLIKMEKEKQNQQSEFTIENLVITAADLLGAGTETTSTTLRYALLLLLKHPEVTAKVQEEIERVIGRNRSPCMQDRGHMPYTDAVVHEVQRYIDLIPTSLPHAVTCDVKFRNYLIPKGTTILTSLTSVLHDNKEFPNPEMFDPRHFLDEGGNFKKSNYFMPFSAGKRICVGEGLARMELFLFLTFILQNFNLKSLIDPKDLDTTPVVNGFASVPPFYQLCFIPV
Chain of CAAX prenyl protease 2 (Q9Y256 whole entry): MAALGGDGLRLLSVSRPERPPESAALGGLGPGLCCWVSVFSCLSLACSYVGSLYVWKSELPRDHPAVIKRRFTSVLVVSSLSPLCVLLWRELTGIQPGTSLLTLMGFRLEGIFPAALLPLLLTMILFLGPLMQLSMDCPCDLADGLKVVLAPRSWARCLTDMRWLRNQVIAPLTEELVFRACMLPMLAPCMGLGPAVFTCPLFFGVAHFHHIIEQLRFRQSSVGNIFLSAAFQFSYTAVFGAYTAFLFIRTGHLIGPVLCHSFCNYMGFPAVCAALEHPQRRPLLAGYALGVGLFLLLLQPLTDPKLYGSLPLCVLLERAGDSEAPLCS
Chain of Cytochrome P450 2C9 (P11712 whole entry): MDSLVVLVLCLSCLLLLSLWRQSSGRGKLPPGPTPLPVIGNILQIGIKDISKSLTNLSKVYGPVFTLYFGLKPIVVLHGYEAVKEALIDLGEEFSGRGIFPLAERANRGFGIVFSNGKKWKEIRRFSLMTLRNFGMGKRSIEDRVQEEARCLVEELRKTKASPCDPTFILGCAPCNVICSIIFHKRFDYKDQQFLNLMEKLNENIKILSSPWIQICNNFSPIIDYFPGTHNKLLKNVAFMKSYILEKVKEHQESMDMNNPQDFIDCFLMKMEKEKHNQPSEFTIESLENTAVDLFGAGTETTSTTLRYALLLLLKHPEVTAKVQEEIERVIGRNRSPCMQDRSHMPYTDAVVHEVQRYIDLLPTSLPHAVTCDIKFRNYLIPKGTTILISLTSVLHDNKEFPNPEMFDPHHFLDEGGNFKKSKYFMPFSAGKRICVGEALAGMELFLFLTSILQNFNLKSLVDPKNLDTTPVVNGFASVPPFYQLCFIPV
Chain of Beta Lactamase (Q932Y6 whole entry): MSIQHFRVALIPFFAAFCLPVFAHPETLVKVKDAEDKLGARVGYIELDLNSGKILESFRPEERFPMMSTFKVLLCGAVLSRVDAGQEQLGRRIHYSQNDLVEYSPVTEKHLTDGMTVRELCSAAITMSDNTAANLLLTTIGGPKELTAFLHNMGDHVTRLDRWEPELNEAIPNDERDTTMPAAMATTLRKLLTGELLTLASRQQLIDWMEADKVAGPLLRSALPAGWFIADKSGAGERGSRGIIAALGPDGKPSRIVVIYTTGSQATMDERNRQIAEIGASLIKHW
Chain of Dual specificity protein kinase CLK1 (P49759 whole entry): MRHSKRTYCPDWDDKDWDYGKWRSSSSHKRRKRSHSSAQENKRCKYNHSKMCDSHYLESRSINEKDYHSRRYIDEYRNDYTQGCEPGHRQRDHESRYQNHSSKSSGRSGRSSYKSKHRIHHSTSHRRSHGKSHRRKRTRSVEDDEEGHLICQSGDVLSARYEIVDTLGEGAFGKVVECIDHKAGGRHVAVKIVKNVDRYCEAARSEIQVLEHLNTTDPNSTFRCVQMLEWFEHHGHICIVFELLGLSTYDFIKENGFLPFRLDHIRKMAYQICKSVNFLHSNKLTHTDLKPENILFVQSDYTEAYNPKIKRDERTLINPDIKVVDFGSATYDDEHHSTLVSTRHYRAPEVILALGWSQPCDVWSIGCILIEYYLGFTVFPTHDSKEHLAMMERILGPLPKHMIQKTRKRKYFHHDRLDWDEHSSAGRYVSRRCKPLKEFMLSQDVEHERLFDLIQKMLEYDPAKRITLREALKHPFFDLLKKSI
Chain of Voltage-gated inwardly rectifying potassium channel KCNH2 (Q12809 whole entry): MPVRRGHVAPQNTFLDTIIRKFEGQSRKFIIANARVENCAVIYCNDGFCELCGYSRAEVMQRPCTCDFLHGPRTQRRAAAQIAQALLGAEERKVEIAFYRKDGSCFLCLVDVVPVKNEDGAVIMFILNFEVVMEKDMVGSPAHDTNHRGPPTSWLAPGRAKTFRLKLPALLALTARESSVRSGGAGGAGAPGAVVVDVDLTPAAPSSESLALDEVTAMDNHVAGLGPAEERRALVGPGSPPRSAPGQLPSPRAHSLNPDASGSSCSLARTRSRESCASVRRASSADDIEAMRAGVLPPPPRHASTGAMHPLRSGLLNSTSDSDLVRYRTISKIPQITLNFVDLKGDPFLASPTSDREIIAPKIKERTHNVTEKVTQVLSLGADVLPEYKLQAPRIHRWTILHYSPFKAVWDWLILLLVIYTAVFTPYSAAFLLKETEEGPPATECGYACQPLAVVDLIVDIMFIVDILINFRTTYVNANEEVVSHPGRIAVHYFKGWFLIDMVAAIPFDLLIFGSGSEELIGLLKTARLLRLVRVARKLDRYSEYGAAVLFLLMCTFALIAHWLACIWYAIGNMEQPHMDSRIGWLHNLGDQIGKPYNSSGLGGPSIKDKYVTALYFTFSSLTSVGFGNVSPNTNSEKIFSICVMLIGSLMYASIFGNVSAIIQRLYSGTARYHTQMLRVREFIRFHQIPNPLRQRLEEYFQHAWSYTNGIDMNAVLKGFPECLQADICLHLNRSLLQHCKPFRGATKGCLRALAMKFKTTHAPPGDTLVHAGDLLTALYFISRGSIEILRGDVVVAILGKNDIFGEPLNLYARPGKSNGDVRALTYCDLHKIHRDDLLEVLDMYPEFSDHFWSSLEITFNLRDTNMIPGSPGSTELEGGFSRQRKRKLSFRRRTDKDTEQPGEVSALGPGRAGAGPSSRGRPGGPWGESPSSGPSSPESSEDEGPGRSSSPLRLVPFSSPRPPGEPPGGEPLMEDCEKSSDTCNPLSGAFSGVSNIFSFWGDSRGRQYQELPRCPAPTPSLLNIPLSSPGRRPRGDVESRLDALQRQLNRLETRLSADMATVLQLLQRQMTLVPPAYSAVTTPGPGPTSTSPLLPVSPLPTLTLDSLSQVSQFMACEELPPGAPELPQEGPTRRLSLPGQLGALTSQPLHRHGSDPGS
Chain of Glycogen synthase kinase-3 alpha (P49840 whole entry): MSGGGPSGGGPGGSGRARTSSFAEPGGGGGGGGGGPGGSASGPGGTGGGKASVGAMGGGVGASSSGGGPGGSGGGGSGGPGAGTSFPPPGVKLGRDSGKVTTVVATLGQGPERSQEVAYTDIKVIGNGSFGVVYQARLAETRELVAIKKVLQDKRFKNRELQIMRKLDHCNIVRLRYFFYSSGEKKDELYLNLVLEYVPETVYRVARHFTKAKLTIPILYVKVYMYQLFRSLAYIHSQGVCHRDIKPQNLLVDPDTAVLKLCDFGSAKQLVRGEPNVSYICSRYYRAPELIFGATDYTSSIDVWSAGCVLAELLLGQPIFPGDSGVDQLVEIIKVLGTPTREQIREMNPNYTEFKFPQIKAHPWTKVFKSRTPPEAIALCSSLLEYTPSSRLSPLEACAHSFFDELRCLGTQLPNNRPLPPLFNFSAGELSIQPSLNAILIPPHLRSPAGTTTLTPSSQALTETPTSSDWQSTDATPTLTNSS
Chain of Glycogen synthase kinase-3 beta (P49841 whole entry): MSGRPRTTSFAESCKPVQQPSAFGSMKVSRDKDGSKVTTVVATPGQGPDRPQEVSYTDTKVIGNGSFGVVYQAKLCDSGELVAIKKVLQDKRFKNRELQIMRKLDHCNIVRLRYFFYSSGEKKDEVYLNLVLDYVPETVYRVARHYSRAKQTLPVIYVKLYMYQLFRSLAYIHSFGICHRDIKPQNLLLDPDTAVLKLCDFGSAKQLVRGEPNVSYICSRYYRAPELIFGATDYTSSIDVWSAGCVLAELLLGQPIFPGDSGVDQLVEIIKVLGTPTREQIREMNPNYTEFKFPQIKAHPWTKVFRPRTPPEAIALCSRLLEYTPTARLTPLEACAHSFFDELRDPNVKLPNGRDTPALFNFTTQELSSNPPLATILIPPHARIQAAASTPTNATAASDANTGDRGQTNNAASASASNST

CCc1ccc(N2C(=O)c3sc4nnc(-c5ccccc5)c(=O)n4c3C2=O)cc1
CC50 [1]: > 40 µM (active) | IC50 [2]: 48.5 µM (active)

CCCCCCCCCCCCN1[C@@H](CC(=O)O)c2cc(C(F)(F)F)ccc2S1(=O)=O
EC50 [3]: 2.22 µM (active) | EC50 [4]: 2.28 µM (active) | EC50 [5]: 10.2 µM (active) | IC50 [6]: 5.7 µM (active) | AC50 [7]: 20.3 µM (active) | AC50 [8]: 8.9 µM (active)

Cc1cccc(NC(=O)c2cc(S(=O)(=O)N3CCCCC3)c[nH]2)c1C
AC50 [9]: 0.197 µM (active)

O=C(Nc1ccc(OC(=O)N2CCCCC2)cc1)N1CCOCC1
AC50 [10]: 27.4 µM (active) | AC50 [11]: > 35 µM (active) | AC50 [12]: > 35 µM (active)

O=c1c(O)c(-c2ccc(O)cc2)oc2cc(O)cc(O)c12 [KAEMPFEROL]
AC50 [13]: 10 µM (inconclusive) | AC50 [14]: 6.31 µM (inconclusive) | AC50 [15]: 1.26 µM (active) | IC50 [16]: 9.93 µM (active) | IC50 [17]: 44.5 µM (active) | AC50 [18]: 0.00126 µM (inconclusive) | AC50 [19]: 0.0022 µM (inconclusive) | AC50 [20]: 44.7 µM (inconclusive) and 56.2 µM (inconclusive)

COc1ccc(S(=O)(=O)Nc2cccc3c2O[C@@H](CN(C)S(=O)(=O)c2ccc(OC)cc2)[C@H](C)CN([C@@H](C)CO)C3=O)cc1
AC50 [21]: 73.4 µM (active)

c1cncc(CNc2ccnc(-c3ccc4cn[nH]c4c3)n2)c1
AC50 [22]: 2.01 µM (active)

COc1ccc2nc(NC(=O)CCNC(=O)c3ccccc3Cl)sc2c1
AC50 [23]: 8.01 µM (active) | AC50 [24]: 1.53 µM (active)

Nc1c(C(=O)c2cccs2)sc2nsc(SCCN3CCCCC3)c12
CC50 [25]: > 40 µM (active) | IC50 [26]: > 49.8 µM (inactive) | EC50 [27]: 12 µM (active) | IC50 [28]: 9.89 µM (active) | EC50 [29]: > 99 µM (inactive)

O=C(CCCCCn1c(=O)[nH]c2ccsc2c1=O)NCc1ccc(F)cc1
EC50 [30]: 0.0776 µM (active)

CC(C)CN(C(=O)COC(=O)c1cc2ccccc2cc1O)c1c(N)n(Cc2ccccc2)c(=O)[nH]c1=O
AC50 [31]: 6.2 µM (active)
